Laboratory results published in patent publication US7662820B2, “Dipterinyl calcium pentahydrate (DCP) and therapeutic methods based thereon” (SanRX Pharmaceuticals, Inc., priority 2006, dated 2010).

Tests used:
[1] = tested on: MDA-MB-231 human tumor xenographs; test: Antitumor efficacy in nude mice with MDA-MB-231 human tumor xenographs; assay type: in vivo, athymic nude (nu/nu) mice; conditions: for anti tumor efficacy compared with original CaPterin, (1:4 mol:mol) calcium pterin / inhibition of MDA-MB-231 xenograph growth (Relative Tumor Volume): oral gavage once daily, FIG. 1; for inhibition of MDA-MB-231 xenograph growth (Relative Tumor Volume): nude mice, versus untreated control
Excerpt: FIGS. 1A and 1B (with SEMs): Twenty-nine athymic nude (nu/nu) female mice, ages 3-4 weeks, were inoculated with 10×10^6 MDA-MB-231 cancer cells subcutaneously into the right flank of each mouse. […] Four mice were assigned as controls. Four mice with outlying tumor sizes or non-tumor takes were subsequently excluded. […] The control group was untreated.
Cell Line Propagation and Inoculation: The MDA-MB-231 human breast tumor cell lines were supplied by SRI International (Menlo Park, Calif.) and propagated using standard in vitro cell expansion methods. Briefly, cells were grown in L-15 media from Gibco (Cat. No. 11415-064) supplemented with 2 mM L-Glutamine and 10% Fetal Bovine Serum (FBS). The cells were cultured in an incubator with 5% C02, 37.50C, and 80% humidity. Cells were harvested with 0.25% (w/v) Trypsin-0.03% (w/v) EDTA solution. Cells were prepared for injection by standard methods to appropriate concentrations. Animals were temporarily restrained but not anesthetized for the inoculation of the tumor cells. Animals were subcutaneously injected with the tumor cells in a 100-200 μl volume.
Control groups were untreated. Daily dosing was for 7 days per week. Animals were restrained but not anesthetized for oral dosing.
Tumor Growth Rate Measurements: Each animal was individually tracked for tumor growth by external caliper measurements of protruding tumor. Primary tumor sizes were measured using calipers and an approximate tumor volume calculated using the formula 1/2 (a×b2), where b was the smaller of two perpendicular diameters.
For each group, the mean and standard error of the mean (SEM) of the ratio V/Vo, Relative Tumor Volume (RTV), were plotted as a function of treatment time after inoculation. V0 was the tumor volume at Day 0, when treatment began. Time course statistical analyses based upon repeated measures ANOVA models were used (StatView SE+Graphics, v 1.03).

[2] = nude mice treated with DCP, FIG. 3
Experimental: Twenty-nine athymic nude were each injected subcutaneously with 10×10^6 MDA-MB-231 cancer cells into the right flank. When tumors reached 3-5 mm in size, the mice were divided into five treatment groups of five each and a control group of four mice. Four of these with outlying tumor sizes or non-tumor takes were excluded shortly after treatment began: one each from the (1:4 mol:mol) calcium pterin group, the (1:2 mol:mol) calcium pterin group, the DCP (69 mg/kg/day) group, and one from the control group. Experimental groups were treated by oral gavage once daily with the indicated test suspensions or solutions. Control groups were untreated. Daily dosing was for 7 days per week. Animals were restrained but not anesthetized for oral dosing. Tumors were measured twice weekly with calipers and body weights taken twice weekly on the day of tumor measurements. Blood was collected from all animals via cardiac puncture at termination (after 70 to 98 days of treatment) and processed to EDTA plasma for analysis.

sarcoma = conditions: mice; cited from earlier work
tumor = conditions: in vivo; cited from earlier work

SMILES: Nc1nc([O-])c2nccnc2n1.Nc1nc([O-])c2nccnc2n1.[Ca+2] [DCP, dipterinyl calcium pentahydrate]
- anti tumor efficacy compared with original CaPterin, (1:4 mol:mol) calcium pterin ([1]; DCP at 23 mg/kg/day): significantly greater anti tumor efficacy
- anti tumor efficacy compared with original CaPterin, (1:4 mol:mol) calcium pterin ([1]; DCP at 69 mg/kg/day): comparable efficacy
- inhibition of MDA-MB-231 xenograph growth (Relative Tumor Volume) [1]: significantly inhibit
- inhibition of MDA-MB-231 xenograph tumors compared with (1:4 mol:mol) calcium pterin [CaPterin] ([1]; oral, dose not stated (conclusion)): significantly greater
- weight loss [2]: no significant weight loss

SMILES: Nc1nc(=O)c2[nH]c(=O)cnc2[nH]1 [Xanthopterin]
- sarcoma growth (sarcoma): inhibit sarcoma growth

SMILES: O.O.[Ca+2].[Cl-].[Cl-] [calcium chloride dihydrate, reference compound]
- inhibition of MDA-MB-231 xenograph growth (Relative Tumor Volume) [1]: significantly inhibit

SMILES: Nc1nc2[nH]c(=O)cnc2c(=O)[nH]1 [Isoxanthopterin]
- tumor growth (tumor): inhibit tumor growth
